# Measured values from paper PMC11093223, “Cargo selective vesicle tethering: The structural basis for binding of specific cargo proteins by the Golgi tether component TBC1D23” (Science Advances, 2024).
# Entries after “also recorded” stand apart in the source; their conditions may differ. Like-named read-outs stand apart in the source and are kept apart here. Residues, ends and D or L forms follow the SMILES beside them.
# Assays:
# [1] = target: T1, TBC1D23 C-terminal domain (Mus musculus, UniProt Q8K0F1); assay: ITC of cargo and mutant syntaxin-16 peptides binding to wild-type TBC1D23 C-terminal domain; settings: for Kd / KD (μM): 20°C; for KD (μM): peptide (0.8-5 mM) titrated into 100 μM domain, 100 mM NaCl, 100 mM tris pH 7.4, 1 mM TCEP, mean of three independent runs
# T1 construct: TBC1D23 C-terminal domains were gel-filtered into buffer; GST (N, cleaved yes); made in house; host or cells: E. coli BL21 pLysS
# Procedure: (§1) Experiments were performed using a Nano ITC machine from TA Instruments. TBC1D23 C-terminal domains were gel-filtered into buffer composed of 100 mM NaCl, 100 mM tris (pH 7.4), and 1 mM tris(2-carboxyethyl)phosphine (TCEP). Peptides were dissolved in the same batch of buffer. Both the wild-type and mutant C-terminal domains were concentrated to 100 μM (1.4 mg/ml) with peptide concentration varying between 0.8 and 5 mM (depending on the peptide). Peptides were titrated into TBC1D23 C-terminal domains with 20 injections of 2.4 μl each separated by 300-s intervals. Experiments were conducted at 20°C. […] Data were exported to GraphPad Prism for figure generation.
# (§2) Recombinant proteins were expressed in BL21 plyS E. coli grown in shaking 2× TY medium at 37°C. Expression was induced with 0.2 mM IPTG, and cells were grown overnight at 22°C. Cells were resuspended in buffer A [250 mM NaCl, 20 mM tris (pH 7.4), and 1 mM DTT] supplemented with 4-benzenesulfonyl fluoride hydrochloride, MnCl2 and deoxyribonuclease I. Cell pellets were lysed using a cell disruptor (Constant Systems) before clarification by ultracentrifugation (104,350 relative centrifugal force) for 45 min. The supernatant was batch bound to glutathione-Sepharose resin (Cytiva) in buffer A before washing with 400 ml of buffer A and overnight cleavage of the GST-tag with thrombin at room temperature. The resultant flow through was concentrated for gel filtration Superdex 200 column (GE Healthcare) into either buffer A for crystallization or into ITC buffer [100 mM NaCl, 100 mM tris (pH 7.4), and 1 mM TCEP].
# [2] = target: T2, TBC1D23 C-terminal domain V626D (Mus musculus, UniProt Q8K0F1, V626D); assay: ITC of syntaxin-16 peptide binding to TBC1D23 C-terminal domain mutant V626D
# T2 construct: Both the wild-type and mutant C-terminal domains were concentrated to 100 μM; GST (N, cleaved yes); made in house; host or cells: E. coli BL21 pLysS
# Procedure: as §1
# as §2, with “The resultant flow through was concentrated for gel filtration Superdex 200 column (GE Healthcare) into either buffer A for crystallization or into ITC buffer [100 mM NaCl, 100 mM tris (pH 7.4), and 1 mM TCEP].” left out
# [3] = target: T3, TBC1D23 C-terminal domain I675W (Mus musculus, UniProt Q8K0F1, I675W); assay: ITC of syntaxin-16 peptide binding to TBC1D23 C-terminal domain mutant I675W
# T3 construct: GST (N, cleaved yes); made in house; host or cells: E. coli BL21 pLysS
# Procedure: as §1
# as §2, with “The resultant flow through was concentrated for gel filtration Superdex 200 column (GE Healthcare) into either buffer A for crystallization or into ITC buffer [100 mM NaCl, 100 mM tris (pH 7.4), and 1 mM TCEP].” left out
# [4] = target: T4, TBC1D23 C-terminal domain K672A (Mus musculus, UniProt Q8K0F1, K672A); assay: ITC of syntaxin-16 peptide binding to TBC1D23 C-terminal domain mutant K672A; settings: mean of three runs, read-out: Mean affinity
# T4 construct: Both the wild-type and mutant C-terminal domains were concentrated to 100 μM; GST (N, cleaved yes); made in house; host or cells: E. coli BL21 pLysS
# Procedure: as §1
# as §2, with “The resultant flow through was concentrated for gel filtration Superdex 200 column (GE Healthcare) into either buffer A for crystallization or into ITC buffer [100 mM NaCl, 100 mM tris (pH 7.4), and 1 mM TCEP].” left out
# [5] = pH 7.4, mean of three runs, read-out: Mean affinity
# [6] = pH 7.4, bound given for peptides without measurable binding, read-out: Affinity
# [7] = bound, no measurable binding, read-out: Affinity
# T1 sequence (Q8K0F1 559-684 limits assumed): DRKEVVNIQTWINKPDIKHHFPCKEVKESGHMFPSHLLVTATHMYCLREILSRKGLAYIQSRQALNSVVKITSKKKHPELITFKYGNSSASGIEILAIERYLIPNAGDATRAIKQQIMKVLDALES
# T2 sequence (Q8K0F1 559-684 V626D limits assumed): as the sequence (Q8K0F1 559-684 limits assumed) above, with V68D counted along it
# T3 sequence (Q8K0F1 559-684 I675W limits assumed): as the sequence (Q8K0F1 559-684 limits assumed) above, with I117W counted along it
# T4 sequence (Q8K0F1 559-684 K672A limits assumed): as the sequence (Q8K0F1 559-684 limits assumed) above, with K114A counted along it
SMILES,"Kd [1, 5] [µM]","Kd [1, 6] [µM]",KD (μM) [1],other results
CC[C@H](C)[C@H](NC(=O)[C@@H](NC(=O)[C@H](CC(=O)O)NC(=O)[C@H](CCC(N)=O)NC(=O)[C@H](CC(=O)O)NC(=O)[C@H](CO)NC(=O)[C@H](CC(=O)O)NC(=O)[C@H](Cc1ccccc1)NC(=O)[C@H](CCC(=O)O)NC(=O)[C@H](CO)NC(=O)[C@@H](N)CCC(=O)O)[C@@H](C)O)C(=O)N[C@@H](Cc1ccccc1)C(=O)O [KIAA0319_TIF] (H-ESEFDSDQDTIF-OH),35.2,–,–,–
C[C@@H](O)[C@H](NC(=O)[C@H](Cc1ccccc1)NC(=O)CNC(=O)[C@H](CCCNC(=N)N)NC(=O)[C@H](Cc1c[nH]cn1)NC(=O)[C@H](Cc1ccc(O)cc1)NC(=O)[C@H](CO)NC(=O)[C@@H](NC(=O)[C@H](CC(N)=O)NC(=O)[C@H](CC(=O)O)NC(=O)[C@@H](N)CC(=O)O)[C@@H](C)O)C(=O)N[C@@H](CCC(=O)O)C(=O)N[C@@H](CC(=O)O)C(=O)O [STX16_LtoS] (H-DDNTSYHRGFTED-OH; N-terminus and C-terminus assumed),–,> 200,No binding,–
CC(C)C[C@H](NC(=O)[C@@H](NC(=O)[C@H](CCC(=O)O)NC(=O)[C@H](CCC(=O)O)NC(=O)[C@@H](N)CCC(=O)O)[C@@H](C)O)C(=O)N[C@@H](Cc1ccc(O)cc1)C(=O)N[C@@H](CO)C(=O)N[C@@H](CO)C(=O)N[C@@H](CCCCN)C(=O)N[C@@H](Cc1c[nH]cn1)C(=O)O [CPD_TLY] (H-EEETLYSSKH-OH),10.6,–,–,–
CC(C)C[C@H](NC(=O)[C@@H](NC(=O)[C@H](CC(N)=O)NC(=O)[C@H](CC(=O)O)NC(=O)[C@@H](N)CC(=O)O)[C@@H](C)O)C(=O)N[C@@H](CO)C(=O)N[C@@H](Cc1c[nH]cn1)C(=O)N[C@@H](CCCNC(=N)N)C(=O)NCC(=O)N[C@@H](Cc1ccccc1)C(=O)N[C@H](C(=O)N[C@@H](CCC(=O)O)C(=O)N[C@@H](CC(=O)O)C(=O)O)[C@@H](C)O [STX16_YtoS] (H-DDNTLSHRGFTED-OH; N-terminus and C-terminus assumed),–,> 200,No binding,–
CC(C)C[C@H](NC(=O)[C@@H](NC(=O)[C@H](CC(N)=O)NC(=O)[C@H](C)NC(=O)[C@H](C)N)[C@@H](C)O)C(=O)N[C@@H](Cc1ccc(O)cc1)C(=O)N[C@@H](Cc1c[nH]cn1)C(=O)N[C@@H](CCCNC(=N)N)C(=O)NCC(=O)N[C@@H](Cc1ccccc1)C(=O)N[C@H](C(=O)N[C@@H](CCC(=O)O)C(=O)N[C@@H](CC(=O)O)C(=O)O)[C@@H](C)O [STX16_DDAA] (H-AANTLYHRGFTED-OH; N-terminus and C-terminus assumed),–,> 200,–,–
CC(C)C[C@H](NC(=O)[C@@H](NC(=O)[C@H](CC(N)=O)NC(=O)[C@H](CC(=O)O)NC(=O)[C@@H](N)CC(=O)O)[C@@H](C)O)C(=O)N[C@@H](Cc1c[nH]c2ccccc12)C(=O)N[C@@H](Cc1c[nH]cn1)C(=O)N[C@@H](CCCNC(=N)N)C(=O)NCC(=O)N[C@@H](Cc1ccccc1)C(=O)N[C@H](C(=O)N[C@@H](CCC(=O)O)C(=O)N[C@@H](CC(=O)O)C(=O)O)[C@@H](C)O [STX16_YtoW] (H-DDNTLWHRGFTED-OH),5.64,–,–,–
C[C@H](NC(=O)[C@@H](NC(=O)[C@H](CC(N)=O)NC(=O)[C@H](CC(=O)O)NC(=O)[C@@H](N)CC(=O)O)[C@@H](C)O)C(=O)N[C@@H](Cc1ccc(O)cc1)C(=O)N[C@@H](Cc1c[nH]cn1)C(=O)N[C@@H](CCCNC(=N)N)C(=O)NCC(=O)N[C@@H](Cc1ccccc1)C(=O)N[C@H](C(=O)N[C@@H](CCC(=O)O)C(=O)N[C@@H](CC(=O)O)C(=O)O)[C@@H](C)O [STX16_LtoA] (H-DDNTAYHRGFTED-OH; N-terminus and C-terminus assumed),–,> 200,–,reduction of binding relative to wild-type syntaxin-16 peptide [1]: > 100 fold
CC(C)C[C@H](NC(=O)[C@H](C)NC(=O)[C@H](CC(N)=O)NC(=O)[C@H](CC(=O)O)NC(=O)[C@@H](N)CC(=O)O)C(=O)N[C@@H](Cc1ccc(O)cc1)C(=O)N[C@@H](Cc1c[nH]cn1)C(=O)N[C@@H](CCCNC(=N)N)C(=O)NCC(=O)N[C@@H](Cc1ccccc1)C(=O)N[C@H](C(=O)N[C@@H](CCC(=O)O)C(=O)N[C@@H](CC(=O)O)C(=O)O)[C@@H](C)O [STX16_TtoA] (H-DDNALYHRGFTED-OH; N-terminus and C-terminus assumed),–,> 200,No binding,–
CC(C)[C@H](NC(=O)[C@@H](NC(=O)[C@H](Cc1ccccc1)NC(=O)[C@H](CC(=O)O)NC(=O)CNC(=O)[C@H](CC(=O)O)NC(=O)[C@H](CCC(=O)O)NC(=O)[C@H](CC(N)=O)NC(=O)[C@H](CCC(=O)O)NC(=O)[C@H](CCC(=O)O)NC(=O)[C@@H](N)CC(=O)O)[C@@H](C)O)C(=O)N[C@@H](Cc1ccc(O)cc1)C(=O)N[C@@H](CCC(=O)O)C(=O)N[C@@H](CS)C(=O)O [NPDC1_TVY] (H-DEENEDGDFTVYEC-OH),2.91,–,–,–
CC(C)[C@H](NC(=O)[C@@H](NC(=O)[C@H](CCC(=O)O)NC(=O)[C@H](CCC(=O)O)NC(=O)[C@H](CC(=O)O)NC(=O)[C@H](CO)NC(=O)[C@@H](N)CC(=O)O)[C@@H](C)O)C(=O)N[C@@H](Cc1ccccc1)C(=O)N[C@@H](CCC(=O)O)C(=O)N[C@@H](CO)C(=O)O [FAM174C_TVF] (H-DSDEETVFES-OH),15.7,–,–,–
CC(C)C[C@H](NC(=O)[C@@H](NC(=O)[C@H](CC(N)=O)NC(=O)[C@H](CC(=O)O)NC(=O)[C@@H](N)CC(=O)O)[C@@H](C)O)C(=O)N[C@@H](Cc1ccc(O)cc1)C(=O)N[C@@H](Cc1c[nH]cn1)C(=O)N[C@@H](CCCNC(=N)N)C(=O)NCC(=O)N[C@@H](Cc1ccccc1)C(=O)N[C@H](C(=O)N[C@@H](CCC(=O)O)C(=O)N[C@@H](CC(=O)O)C(=O)O)[C@@H](C)O [STX16_TLY] (H-DDNTLYHRGFTED-OH),–,–,–,"KD (μM) ([2]; 20°C, pH 7.4, figure and text, listed as syntaxin-16 peptide): abolishes peptide binding; also recorded: No binding; Kd [2, 7]: > 200 µM; KD (μM) ([3]; 20°C, pH 7.4, figure and text): No binding; Kd [3, 7]: > 200 µM; Kd [4]: 27.6 µM"
CSCC[C@H](NC(=O)[C@H](CC(C)C)NC(=O)[C@H](Cc1c[nH]c2ccccc12)NC(=O)[C@H](CCC(=O)O)NC(=O)[C@@H](NC(=O)[C@H](CCC(=O)O)NC(=O)[C@H](CC(N)=O)NC(=O)[C@H](CCC(=O)O)NC(=O)[C@H](CC(=O)O)NC(=O)[C@@H](NC(=O)[C@H](CCC(=O)O)NC(=O)[C@H](CCC(=O)O)NC(=O)[C@@H](N)CCC(=O)O)[C@@H](C)O)[C@@H](C)O)C(=O)O [CIMPR_WLM] (H-EEETDENETEWLM-OH; N-terminus and C-terminus assumed),–,> 200,no binding,–
C[C@@H](O)[C@H](NC(=O)[C@H](Cc1ccccc1)NC(=O)CNC(=O)[C@H](CCCNC(=N)N)NC(=O)[C@H](Cc1c[nH]cn1)NC(=O)[C@H](Cc1ccc(O)cc1)NC(=O)[C@H](Cc1ccccc1)NC(=O)[C@@H](NC(=O)[C@H](CC(N)=O)NC(=O)[C@H](CC(=O)O)NC(=O)[C@@H](N)CC(=O)O)[C@@H](C)O)C(=O)N[C@@H](CCC(=O)O)C(=O)N[C@@H](CC(=O)O)C(=O)O [STX16_LtoF] (H-DDNTFYHRGFTED-OH),151,–,–,–
CC(C)[C@H](NC(=O)[C@@H](NC(=O)[C@H](CO)NC(=O)[C@H](Cc1ccc(O)cc1)NC(=O)[C@@H](NC(=O)[C@@H](NC(=O)[C@H](CC(N)=O)NC(=O)[C@H](C)NC(=O)[C@@H]1CCCN1C(=O)[C@H](CC(=O)O)NC(=O)[C@@H](N)CCC(=O)O)[C@@H](C)O)C(C)C)[C@@H](C)O)C(=O)N[C@@H](CCC(=O)O)C(=O)O [SLAMF7_TVY] (H-EDPANTVYSTVE-OH; N-terminus and C-terminus assumed),–,> 200,no binding,–
